# Values of other authors in patent US20110021553A1, “IMMUNOSUPPRESSIVE MACROLIDE POWDER FOR ORAL SUSPENSION” (priority 2008, published 2011).
# Legend:
# [1] = main metabolites via CYP3A4
# [2] = test system: albumin and α1-glicoprotein; details: mainly albumin and α1-glicoprotein
# [3] = not given; remark: listed apart in the source
# [4] = test system: skin mast cells, basophils and eosinophils; details: in vitro
smiles,measurement,setting,value
C=CCC1C=C(C)CC(C)CC(OC)C2OC(O)(C(=O)C(=O)N3CCCCC3C(=O)OC(C(C)=CC3CCC(O)C(OC)C3)C(C)C(O)CC1=O)C(C)CC2O (stereo not shown) [13-O-desmethyl tacrolimus],immunosuppressive effect,[1],neither of which have a measurable immunosuppresive effect
C=CCC1C=C(C)CC(C)CC(O)C2OC(O)(C(=O)C(=O)N3CCCCC3C(=O)OC(C(C)=CC3CCC(O)C(OC)C3)C(C)C(O)CC1=O)C(C)CC2OC (stereo not shown) [15-O-desmethyl tacrolimus],immunosuppressive effect,[1],neither of which have a measurable immunosuppresive effect
"C=CC[C@@H]1/C=C(\C)C[C@H](C)C[C@H](OC)[C@H]2O[C@@](O)(C(=O)C(=O)N3CCCC[C@H]3C(=O)O[C@H](/C(C)=C/[C@@H]3CC[C@@H](O)[C@H](OC)C3)[C@H](C)[C@@H](O)CC1=O)[C@H](C)C[C@@H]2OC (relative stereo) [Tacrolimus, [3S-[3R*[E(1S*,3S*,4S*)], 4S*,5R*,8S*,9E,12R*,14R*,15S*,16R*,18S*,19S*,26aR*]]-5,6,8,11,12,13,14,15,16,17,18,19,24,25,26,26a-hexadecahydro-5,19-dihydroxy-3-[2-(4-hidroxy-3-metoxy-cyclohexyl)-1-metyletenyl]-14,16-dimethoxy-4,10,12,18-tetramethyl-8-(2-propenyl)-15,19-epoxy-3H-pyrido [2,1-c] [1,4] oxazacyclotricosine-1,7,20,21 (4H, 23H)-tetraone, monohydrate]",excreted in unaltered state through urine,"human, in vivo",less than 1%
same,elimination through bile,main channel of elimination,more than 90%
same,Bioavailability,"oral, reduced with the presence of food",4-89%
same,time to concentration in steady state,"orally 0.3 mg/Kg/day, liver transplant patients, majority of the cases",3 days
same,combination to proteins,[2],99%
same,solubility in organic solvents,"[3]; methanol, ethanol, acetone, ethyl acetate, chloroform and diethyl ether",soluble
same,solubility in water,[3]; water,insoluble
same,release of mediators,[4],decreases the release of the mediators
